Where “and” joins values, the source holds several entries; their conditions need not be identical. Equal entries are not always repeated. Toxic doses and inconclusive results are not listed. How the source made its calls: active means survival T/C of 150% or more; inactive means T/C below 125% in these data.
Test system: CD2F1 mice, L1210 leukemia sc, survival T/C
Experiment: NCI In Vivo Anticancer Drug Screen. Data for tumor model L1210 Leukemia (subcutaneous) in CD2F1 (CDF1) mice
Settings: endpoint: median survival time, higher = longer survival
In short: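 Read-out: survival or tumor size. Value = treated (T) / vehicle control (C). Transplantable tumor in mice.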

[1] = dose: 3.0 mg/kg/injection, schedule: Q01DX009 (ip), vehicle: water

Measured: T/C

Nc1nc(=S)c2[nH]cnc2[nH]1
active: dose: 2.16 mg/kg/injection, schedule: Q01DX Z (sc), vehicle: other 177 % of control | dose: 3.6 mg/kg/injection, schedule: Q01DX Z (sc), vehicle: other 177 % of control | dose: 6.0 mg/kg/injection, schedule: Q01DX Z (sc), vehicle: other 177 % of control | dose: 10.1 mg/kg/injection, schedule: Q01DX Z (sc), vehicle: other 166 % of control | dose: 16.9 mg/kg/injection, schedule: Q01DX Z (sc), vehicle: other 161 % of control

O=C(Nc1ccccc1)c1c(O)[nH]c(=S)[nH]c1=O
active: dose: 28.2 mg/kg/injection, schedule: Q03HX008 (ip), vehicle: other 157 % of control and 163 % of control | dose: 30.0 mg/kg/injection, schedule: Q04HX006 (iv), vehicle: other 168 % of control | dose: 45.0 mg/kg/injection, schedule: Q01DX003 (iv), vehicle: other 161 % of control | dose: 45.0 mg/kg/injection, schedule: Q01DX005 (ip), vehicle: other 173 % of control and 184 % of control
inactive: dose: 5.6 mg/kg/injection, schedule: Q03HX008 (ip), vehicle: other 107 % of control and 96 % of control | dose: 5.9 mg/kg/injection, schedule: Q04HX006 (iv), vehicle: other 110 % of control | dose: 8.4 mg/kg/injection, schedule: Q03HX008 (ip), vehicle: other 107 % of control | dose: 8.9 mg/kg/injection, schedule: Q01DX003 (iv), vehicle: other 105 % of control | dose: 8.9 mg/kg/injection, schedule: Q04HX006 (iv), vehicle: other 109 % of control | dose: 12.6 mg/kg/injection, schedule: Q03HX008 (ip), vehicle: other 104 % of control and 111 % of control | dose: 13.4 mg/kg/injection, schedule: Q01DX003 (iv), vehicle: other 101 % of control | dose: 13.4 mg/kg/injection, schedule: Q01DX005 (ip), vehicle: other 100 % of control and 103 % of control | dose: 13.4 mg/kg/injection, schedule: Q04HX006 (iv), vehicle: other 113 % of control | dose: 18.8 mg/kg/injection, schedule: Q03HX008 (ip), vehicle: other 122 % of control | dose: 20.0 mg/kg/injection, schedule: Q01DX003 (iv), vehicle: other 107 % of control | dose: 20.0 mg/kg/injection, schedule: Q01DX005 (ip), vehicle: other 106 % of control and 115 % of control | dose: 20.0 mg/kg/injection, schedule: Q04HX006 (iv), vehicle: other 119 % of control | dose: 29.8 mg/kg/injection, schedule: Q01DX001 (ip), vehicle: other 105 % of control and 107 % of control | dose: 30.0 mg/kg/injection, schedule: Q01DX003 (iv), vehicle: other 124 % of control | dose: 44.7 mg/kg/injection, schedule: Q01DX001 (ip), vehicle: other 117 % of control and 119 % of control

S=P(N1CC1)(N1CC1)N1CC1
active: dose: 6.0 mg/kg/injection, schedule: Q01DX009 (sc), vehicle: saline 166 % of control and 176 % of control | dose: 24.0 mg/kg/injection, schedule: Q01DX009 (ip), vehicle: water 194 % of control | dose: 24.0 mg/kg/injection, schedule: Q01DX009 (sc), vehicle: water 157 % of control
inactive: dose: 1.5 mg/kg/injection, schedule: Q01DX009 (ip), vehicle: water 107 % of control | dose: 1.5 mg/kg/injection, schedule: Q01DX009 (sc), vehicle: water 105 % of control | [1] 105 % of control | dose: 3.0 mg/kg/injection, schedule: Q01DX009 (sc), vehicle: saline 121 % of control | dose: 3.0 mg/kg/injection, schedule: Q01DX009 (sc), vehicle: water 101 % of control | dose: 6.0 mg/kg/injection, schedule: Q01DX009 (ip), vehicle: water 121 % of control | dose: 6.0 mg/kg/injection, schedule: Q01DX009 (sc), vehicle: water 122 % of control | dose: 12.0 micrograms/kg/injection, schedule: Q01DX009 (ip), vehicle: saline 100 % of control | dose: 12.0 micrograms/kg/injection, schedule: Q01DX009 (sc), vehicle: saline 107 % of control | dose: 25.0 micrograms/kg/injection, schedule: Q01DX009 (ip), vehicle: saline 104 % of control | dose: 25.0 micrograms/kg/injection, schedule: Q01DX009 (sc), vehicle: saline 98 % of control | dose: 50.0 micrograms/kg/injection, schedule: Q01DX009 (ip), vehicle: saline 104 % of control | dose: 50.0 micrograms/kg/injection, schedule: Q01DX009 (sc), vehicle: saline 100 % of control | dose: 100.0 micrograms/kg/injection, schedule: Q01DX009 (ip), vehicle: saline 100 % of control | dose: 100.0 micrograms/kg/injection, schedule: Q01DX009 (sc), vehicle: saline 98 % of control | dose: 200.0 micrograms/kg/injection, schedule: Q01DX009 (ip), vehicle: saline 96 % of control | dose: 200.0 micrograms/kg/injection, schedule: Q01DX009 (sc), vehicle: saline 102 % of control | dose: 400.0 micrograms/kg/injection, schedule: Q01DX009 (ip), vehicle: saline 102 % of control | dose: 400.0 micrograms/kg/injection, schedule: Q01DX009 (sc), vehicle: saline 102 % of control

O=C(NO)c1cc(O)c(O)c(O)c1
inactive: dose: 25.0 mg/kg/injection, schedule: Q01DX009 (ip), vehicle: distilled water + Tween-80 97 % of control and 100 % of control | dose: 50.0 mg/kg/injection, schedule: Q01DX009 (ip), vehicle: distilled water + Tween-80 104 % of control | dose: 100.0 mg/kg/injection, schedule: Q01DX009 (ip), vehicle: distilled water + Tween-80 100 % of control and 102 % of control | dose: 200.0 mg/kg/injection, schedule: Q01DX009 (ip), vehicle: distilled water + Tween-80 124 % of control | dose: 400.0 mg/kg/injection, schedule: Q01DX009 (ip), vehicle: distilled water + Tween-80 90 % of control

N#[N+]c1cnc([O-])[nH]c1=O
inactive: dose: 14.0 mg/kg/injection, schedule: Q01DX Z (sc), vehicle: methylcellulose (MC) 100 % of control | dose: 23.0 mg/kg/injection, schedule: Q01DX Z (sc), vehicle: methylcellulose (MC) 100 % of control | dose: 39.0 mg/kg/injection, schedule: Q01DX Z (sc), vehicle: methylcellulose (MC) 122 % of control | dose: 39.0 mg/kg/injection, schedule: Q01DX Z (sc), vehicle: other 100 % of control | dose: 65.0 mg/kg/injection, schedule: Q01DX Z (sc), vehicle: other 116 % of control

Cc1cccnc1
inactive: dose: 108.0 mg/kg/injection, schedule: Q01DX Z (sc), vehicle: water 100 % of control | dose: 180.0 mg/kg/injection, schedule: Q01DX Z (sc), vehicle: water 100 % of control

CNCCN=c1ccc2c3c1c(O)c1c(O)ccc(=O)c1c3[nH]n2CCNCCO
active: [1] 206 % of control
inactive: dose: 1.08 mg/kg/injection, schedule: Q01DX009 (ip), vehicle: water 117 % of control | dose: 5.0 mg/kg/injection, schedule: Q01DX009 (ip), vehicle: water 124 % of control | dose: 8.3 mg/kg/injection, schedule: Q01DX009 (ip), vehicle: water 89 % of control

COc1cccc2c1C(=O)c1c(O)c3c(c(O)c1C2=O)CC(O)(C(=O)CO)CC3OC1CC(N)C(O)C(C)O1 (configuration not stated)
inactive: dose: 2.9 mg/kg/injection, schedule: Q01DX009 (ip), vehicle: saline 104 % of control | dose: 5.8 mg/kg/injection, schedule: Q01DX009 (ip), vehicle: saline 105 % of control | dose: 11.7 mg/kg/injection, schedule: Q01DX009 (ip), vehicle: saline 106 % of control | dose: 23.4 mg/kg/injection, schedule: Q01DX009 (ip), vehicle: saline 115 % of control | dose: 46.8 mg/kg/injection, schedule: Q01DX009 (ip), vehicle: saline 111 % of control

COC12C(COC(N)=O)C3=C(C(=O)C(C)=C(N)C3=O)N1CC1C2N1C (configuration not stated)
inactive: dose: 2.0 mg/kg/injection, schedule: Q01DX009 (ip), vehicle: saline 101 % of control | dose: 3.75 mg/kg/injection, schedule: Q01DX009 (ip), vehicle: saline 105 % of control | dose: 4.0 mg/kg/injection, schedule: Q01DX009 (ip), vehicle: saline 120 % of control | dose: 7.5 mg/kg/injection, schedule: Q01DX009 (ip), vehicle: saline 110 % of control | dose: 15.0 mg/kg/injection, schedule: Q01DX009 (ip), vehicle: saline 117 % of control | dose: 16.0 mg/kg/injection, schedule: Q01DX009 (ip), vehicle: saline 101 % of control

O=C1c2ccccc2C(=O)c2c(NCCNCCO)ccc(O)c21
inactive: dose: 5.0 mg/kg/injection, schedule: Q01DX009 (ip), vehicle: suspension in saline 103 % of control and 104 % of control | dose: 10.0 mg/kg/injection, schedule: Q01DX009 (ip), vehicle: suspension in saline 103 % of control and 106 % of control | dose: 20.0 mg/kg/injection, schedule: Q01DX009 (ip), vehicle: suspension in saline 104 % of control and 108 % of control | dose: 40.0 mg/kg/injection, schedule: Q01DX009 (ip), vehicle: suspension in saline 103 % of control and 106 % of control | dose: 80.0 mg/kg/injection, schedule: Q01DX009 (ip), vehicle: suspension in saline 114 % of control and 116 % of control

N[C@H](C(=O)O)[C@H]1ON=C(Cl)[C@@H]1O
active: dose: 64.0 mg/kg/injection, schedule: Q01DX009 (sc), vehicle: saline 152 % of control
inactive: dose: 16.0 mg/kg/injection, schedule: Q01DX009 (sc), vehicle: saline 114 % of control | dose: 1024.0 mg/kg/injection, schedule: Q01DX009 (sc), vehicle: saline 120 % of control

Source: PubChem BioAssay AID258 (DTP/NCI, 2004)
